According to PubChem BioAssay AID248 (DTP/NCI, 2004):
“And” between values parts separate entries of the source, which are not always exact repeats. Equal entries are not always repeated. Inconclusive results and toxic doses are left out. Rule as the data show it: active = T/C of 150% or more; inactive = T/C below 125%.

Tested on: L1210 leukemia ip in BDF1 mice, survival T/C
Test: NCI In Vivo Anticancer Drug Screen. Data for tumor model L1210 Leukemia (intraperitoneal) in B6D2F1 (BDF1) mice
Settings: endpoint: mean survival time, higher = longer survival
How it was run: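 Value reflects the ratio of survival in compound-treated mice to survival in vehicle-treated controls, with both groups carrying the same transplanted tumor.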

[1] = dose: 100.0 mg/kg/injection, schedule: Q01DX009 (ip), vehicle: Klucel (hydroxypropylcellulose) (HPC)
[2] = dose: 100.0 mg/kg/injection, schedule: Q04DX002 (ip), vehicle: Klucel (hydroxypropylcellulose) (HPC)
[3] = dose: 200.0 mg/kg/injection, schedule: Q01DX009 (ip), vehicle: Klucel (hydroxypropylcellulose) (HPC)
[4] = dose: 200.0 mg/kg/injection, schedule: Q04DX002 (ip), vehicle: Klucel (hydroxypropylcellulose) (HPC)
[5] = dose: 400.0 mg/kg/injection, schedule: Q01DX009 (ip), vehicle: Klucel (hydroxypropylcellulose) (HPC)
[6] = dose: 400.0 mg/kg/injection, schedule: Q04DX002 (ip), vehicle: Klucel (hydroxypropylcellulose) (HPC)
[7] = dose: 100.0 mg/kg/injection, schedule: Q01DX001 (ip), vehicle: carboxymethylcellulose (CMC)
[8] = dose: 200.0 mg/kg/injection, schedule: Q01DX001 (ip), vehicle: carboxymethylcellulose (CMC)
[9] = dose: 400.0 mg/kg/injection, schedule: Q01DX001 (ip), vehicle: carboxymethylcellulose (CMC)
[10] = dose: 100.0 mg/kg/injection, schedule: Q01DX009 (ip), vehicle: saline
[11] = dose: 200.0 mg/kg/injection, schedule: Q01DX009 (ip), vehicle: saline
[12] = dose: 100.0 mg/kg/injection, schedule: Q04DX003 (ip), vehicle: Klucel (hydroxypropylcellulose) (HPC)
[13] = dose: 200.0 mg/kg/injection, schedule: Q04DX003 (ip), vehicle: Klucel (hydroxypropylcellulose) (HPC)
[14] = dose: 400.0 mg/kg/injection, schedule: Q04DX003 (ip), vehicle: Klucel (hydroxypropylcellulose) (HPC)
[15] = dose: 100.0 mg/kg/injection, schedule: Q01DX001 (ip), vehicle: saline
[16] = dose: 200.0 mg/kg/injection, schedule: Q01DX001 (ip), vehicle: saline
[17] = dose: 400.0 mg/kg/injection, schedule: Q01DX001 (ip), vehicle: saline

Measured: T/C

N#CCC(=O)Nc1ccccc1
inactive: [1] 95 % of control | [2] 109 % of control | [3] 103 % of control | [4] 109 % of control | [5] 114 % of control | [6] 106 % of control

O=C1C(=O)c2cc(Br)ccc2-c2ccc(Br)cc21
inactive: dose: 50.0 mg/kg/injection, schedule: Q01DX001 (ip), vehicle: carboxymethylcellulose (CMC) 107 % of control | [7] 107 % of control | [8] 100 % of control | [9] 89 % of control

Cc1cn(C2CC(CO)CC2O)c(=O)[nH]c1=O (stereo not given)
inactive: dose: 50.0 mg/kg/injection, schedule: Q01DX009 (ip), vehicle: saline 104 % of control | [10] 107 % of control | [11] 107 % of control

CN(Cc1ccccc1)C(=S)[S-].CN(Cc1ccccc1)C(=S)[S-].[Zn]
inactive: dose: 2.5 mg/kg/injection, schedule: Q01DX009 (ip), vehicle: acetone 100 % of control | dose: 5.0 mg/kg/injection, schedule: Q01DX009 (ip), vehicle: acetone 87 % of control | dose: 5.0 mg/kg/injection, schedule: Q04DX003 (ip), vehicle: saline 95 % of control | dose: 10.0 mg/kg/injection, schedule: Q01DX001 (ip), vehicle: saline 91 % of control | dose: 10.0 mg/kg/injection, schedule: Q01DX009 (ip), vehicle: acetone 89 % of control | dose: 10.0 mg/kg/injection, schedule: Q04DX003 (ip), vehicle: saline 92 % of control | dose: 20.0 mg/kg/injection, schedule: Q01DX001 (ip), vehicle: saline 93 % of control | dose: 20.0 mg/kg/injection, schedule: Q04DX003 (ip), vehicle: saline 89 % of control

O=C(O)c1n[nH]nc1[N+](=O)[O-]
inactive: dose: 75.0 mg/kg/injection, schedule: Q01DX001 (ip), vehicle: saline 96 % of control | dose: 150.0 mg/kg/injection, schedule: Q01DX001 (ip), vehicle: saline 105 % of control | dose: 300.0 mg/kg/injection, schedule: Q01DX001 (ip), vehicle: saline 98 % of control

Cc1cc[n+]([O-])cc1C
inactive: [1] 101 % of control | [2] 98 % of control | [3] 96 % of control | [4] 101 % of control

CCCCCCCCCCCCCCCCN(C(=S)c1ccccc1)c1ccccc1
inactive: [1] 89 % of control | [12] 104 % of control | [3] 90 % of control | [13] 94 % of control | [5] 87 % of control | [14] 96 % of control

CC(=O)NC(=O)NC(C)=O
inactive: [15] 95 % of control | [10] 100 % of control | dose: 100.0 mg/kg/injection, schedule: Q04DX003 (ip), vehicle: saline 99 % of control | [16] 94 % of control | [11] 105 % of control | dose: 200.0 mg/kg/injection, schedule: Q04DX003 (ip), vehicle: saline 97 % of control | [17] 97 % of control | dose: 400.0 mg/kg/injection, schedule: Q01DX009 (ip), vehicle: saline 95 % of control | dose: 400.0 mg/kg/injection, schedule: Q04DX003 (ip), vehicle: saline 100 % of control

c1ccc2c(c1)sc1cc3ccncc3cc12
inactive: dose: 75.0 mg/kg/injection, schedule: Q01DX001 (ip), vehicle: other 110 % of control | dose: 150.0 mg/kg/injection, schedule: Q01DX001 (ip), vehicle: other 101 % of control | dose: 300.0 mg/kg/injection, schedule: Q01DX001 (ip), vehicle: other 107 % of control

CCc1cccc[n+]1CC(=O)c1ccccc1
inactive: dose: 6.25 mg/kg/injection, schedule: Q01DX009 (ip), vehicle: saline 95 % of control | dose: 12.5 mg/kg/injection, schedule: Q01DX009 (ip), vehicle: saline 98 % of control | dose: 25.0 mg/kg/injection, schedule: Q04DX003 (ip), vehicle: saline 96 % of control

O=C(Nc1cccc2ccccc12)Oc1ccc(C2CCCCC2)cc1
inactive: dose: 100.0 mg/kg/injection, schedule: Q01DX009 (ip), vehicle: carboxymethylcellulose (CMC) 97 % of control and 90 % of control | [2] 89 % of control | dose: 100.0 mg/kg/injection, schedule: Q04DX002 (ip), vehicle: carboxymethylcellulose (CMC) 100 % of control and 101 % of control | dose: 100.0 mg/kg/injection, schedule: Q04DX003 (ip), vehicle: carboxymethylcellulose (CMC) 101 % of control | dose: 200.0 mg/kg/injection, schedule: Q01DX009 (ip), vehicle: carboxymethylcellulose (CMC) 87 % of control and 92 % of control | [4] 96 % of control | dose: 200.0 mg/kg/injection, schedule: Q04DX002 (ip), vehicle: carboxymethylcellulose (CMC) 101 % of control and 90 % of control | dose: 200.0 mg/kg/injection, schedule: Q04DX003 (ip), vehicle: carboxymethylcellulose (CMC) 100 % of control | dose: 400.0 mg/kg/injection, schedule: Q01DX009 (ip), vehicle: carboxymethylcellulose (CMC) 97 % of control and 90 % of control | [6] 101 % of control | dose: 400.0 mg/kg/injection, schedule: Q04DX002 (ip), vehicle: carboxymethylcellulose (CMC) 95 % of control and 90 % of control | dose: 400.0 mg/kg/injection, schedule: Q04DX003 (ip), vehicle: carboxymethylcellulose (CMC) 92 % of control

CN=C(c1ccc(NC(=O)c2ccc(C(=O)Nc3ccc(C(=NC)N4CCOCC4)cc3)c(Cl)c2)cc1)N1CCOCC1
inactive: dose: 0.94 mg/kg/injection, schedule: Q01DX Z (ip), vehicle: carboxymethylcellulose (CMC) 104 % of control | dose: 1.87 mg/kg/injection, schedule: Q01DX Z (ip), vehicle: carboxymethylcellulose (CMC) 101 % of control | dose: 3.75 mg/kg/injection, schedule: Q01DX Z (ip), vehicle: carboxymethylcellulose (CMC) 98 % of control | dose: 7.5 mg/kg/injection, schedule: Q01DX Z (ip), vehicle: carboxymethylcellulose (CMC) 87 % of control | dose: 15.0 mg/kg/injection, schedule: Q01DX Z (ip), vehicle: carboxymethylcellulose (CMC) 91 % of control | dose: 30.0 mg/kg/injection, schedule: Q01DX Z (ip), vehicle: carboxymethylcellulose (CMC) 91 % of control | dose: 60.0 mg/kg/injection, schedule: Q01DX Z (ip), vehicle: carboxymethylcellulose (CMC) 91 % of control

Cc1cc(C)c(S(=O)(=O)C(=O)/C=N/N)c(C)c1
inactive: dose: 100.0 mg/kg/injection, schedule: Q01DX001 (ip), vehicle: Klucel (hydroxypropylcellulose) (HPC) 96 % of control | [12] 98 % of control | dose: 200.0 mg/kg/injection, schedule: Q01DX001 (ip), vehicle: Klucel (hydroxypropylcellulose) (HPC) 100 % of control | [3] 91 % of control | [13] 98 % of control | dose: 400.0 mg/kg/injection, schedule: Q01DX001 (ip), vehicle: Klucel (hydroxypropylcellulose) (HPC) 94 % of control | [5] 93 % of control | [14] 96 % of control

CCCCC[CH2][Sn]([CH2]C)([CH2]C)[CH2]C
inactive: dose: 100.0 mg/kg/injection, schedule: Q04DX002 (ip), vehicle: saline 93 % of control | dose: 200.0 mg/kg/injection, schedule: Q04DX002 (ip), vehicle: saline 93 % of control

O=C1c2cc([N+](=O)[O-])ccc2SC2C=CSC12 (stereo not given)
inactive: [7] 94 % of control | [8] 108 % of control | [9] 100 % of control

CCCCCCCCCCCCCCCCN(C)C(=S)c1ccc(OC)cc1
inactive: [12] 101 % of control | [13] 101 % of control | [14] 94 % of control

COc1ccccc1NC(=O)Nc1ccccc1
inactive: [1] 94 % of control and 102 % of control | [12] 95 % of control | [3] 96 % of control and 97 % of control | [13] 93 % of control | [5] 96 % of control and 100 % of control | [14] 86 % of control

CCCCCCCCCCCCCCCCCCNC(=O)Cc1ccc(N(CCCl)CCCl)cc1
inactive: [1] 94 % of control | [3] 95 % of control

O=C1OC(c2ccccc2)(c2cccc3ccccc23)CC1c1ccccc1 (stereo not given)
inactive: [15] 98 % of control | [16] 98 % of control | [17] 89 % of control
